Assay results: patent US12421243B2, “Pharmaceutically effective compounds inhibiting selectively the myosin 2 isoforms” (PRINTNET KERESKEDELMI ÉS SZOLGÁLTATÓ KFT., priority 2018, dated 2025)

What was measured:
[1] = biological target: recombinant Dictyostelium miozin (Dictyostelium) (Dictyostelium discoideum, UniProt P08799); experiment: actomyosin steady state ATPase measurement, Dictyostelium myosin; format: biochemical; conditions: for IC50: concentration required for semi-maximal inhibition of ATPase, read-out: IC50 (μM) Dicty; for % inhibition. complete Dicty: maximum value of inhibition of ATPase activity; for inhibition at 5 µM: read-out: % inhibition at 5 μM (or 10 μM if racemate) Dicty; for inhibition at 50 µM: read-out: % inhibition at 50 μM (or 100 μM if racemate) Dicty
From the text: (§1) […]; (ii) the concentration required for semi-maximal inhibition.

[2] = biological target: recombinant human non-muscle myosin 2 NM2A (Homo sapiens, UniProt P35579); experiment: actomyosin steady state ATPase measurement, NM2A; format: biochemical; conditions: for IC50: concentration required for semi-maximal inhibition of ATPase; for % inhibition. complete NM2A: maximum value of inhibition of ATPase activity; for inhibition at 5 µM: read-out: % inhibition at 5 μM (or 10 μM if racemate) NM2A, 5 μM (10 μM if racemate); for inhibition at 5 µM / inhibition at 50 µM: ATPase activity; for inhibition at 50 µM: read-out: % inhibition at 50 μM (or 100 μM if racemate) NM2A, 50 μM (100 μM if racemate); for Inhibition (%) NM2A: maximum inhibition, compounds in IC50 range 5-10 μM
From the text: as §1

[3] = biological target: recombinant human non-muscle myosin 2 NM2B (Homo sapiens, UniProt P35580); experiment: actomyosin steady state ATPase measurement, NM2B; format: biochemical; conditions: for IC50: concentration required for semi-maximal inhibition of ATPase; for inhibition at 5 µM: read-out: % inhibition at 5 μM (or 10 μM if racemate) NM2B, 5 μM (10 μM if racemate); for inhibition at 5 µM / inhibition at 50 µM: ATPase activity; for inhibition at 50 µM: read-out: % inhibition at 50 μM (or 100 μM if racemate) NM2B, 50 μM (100 μM if racemate)
Chain of recombinant human non-muscle myosin 2 NM2B (P35580 whole entry): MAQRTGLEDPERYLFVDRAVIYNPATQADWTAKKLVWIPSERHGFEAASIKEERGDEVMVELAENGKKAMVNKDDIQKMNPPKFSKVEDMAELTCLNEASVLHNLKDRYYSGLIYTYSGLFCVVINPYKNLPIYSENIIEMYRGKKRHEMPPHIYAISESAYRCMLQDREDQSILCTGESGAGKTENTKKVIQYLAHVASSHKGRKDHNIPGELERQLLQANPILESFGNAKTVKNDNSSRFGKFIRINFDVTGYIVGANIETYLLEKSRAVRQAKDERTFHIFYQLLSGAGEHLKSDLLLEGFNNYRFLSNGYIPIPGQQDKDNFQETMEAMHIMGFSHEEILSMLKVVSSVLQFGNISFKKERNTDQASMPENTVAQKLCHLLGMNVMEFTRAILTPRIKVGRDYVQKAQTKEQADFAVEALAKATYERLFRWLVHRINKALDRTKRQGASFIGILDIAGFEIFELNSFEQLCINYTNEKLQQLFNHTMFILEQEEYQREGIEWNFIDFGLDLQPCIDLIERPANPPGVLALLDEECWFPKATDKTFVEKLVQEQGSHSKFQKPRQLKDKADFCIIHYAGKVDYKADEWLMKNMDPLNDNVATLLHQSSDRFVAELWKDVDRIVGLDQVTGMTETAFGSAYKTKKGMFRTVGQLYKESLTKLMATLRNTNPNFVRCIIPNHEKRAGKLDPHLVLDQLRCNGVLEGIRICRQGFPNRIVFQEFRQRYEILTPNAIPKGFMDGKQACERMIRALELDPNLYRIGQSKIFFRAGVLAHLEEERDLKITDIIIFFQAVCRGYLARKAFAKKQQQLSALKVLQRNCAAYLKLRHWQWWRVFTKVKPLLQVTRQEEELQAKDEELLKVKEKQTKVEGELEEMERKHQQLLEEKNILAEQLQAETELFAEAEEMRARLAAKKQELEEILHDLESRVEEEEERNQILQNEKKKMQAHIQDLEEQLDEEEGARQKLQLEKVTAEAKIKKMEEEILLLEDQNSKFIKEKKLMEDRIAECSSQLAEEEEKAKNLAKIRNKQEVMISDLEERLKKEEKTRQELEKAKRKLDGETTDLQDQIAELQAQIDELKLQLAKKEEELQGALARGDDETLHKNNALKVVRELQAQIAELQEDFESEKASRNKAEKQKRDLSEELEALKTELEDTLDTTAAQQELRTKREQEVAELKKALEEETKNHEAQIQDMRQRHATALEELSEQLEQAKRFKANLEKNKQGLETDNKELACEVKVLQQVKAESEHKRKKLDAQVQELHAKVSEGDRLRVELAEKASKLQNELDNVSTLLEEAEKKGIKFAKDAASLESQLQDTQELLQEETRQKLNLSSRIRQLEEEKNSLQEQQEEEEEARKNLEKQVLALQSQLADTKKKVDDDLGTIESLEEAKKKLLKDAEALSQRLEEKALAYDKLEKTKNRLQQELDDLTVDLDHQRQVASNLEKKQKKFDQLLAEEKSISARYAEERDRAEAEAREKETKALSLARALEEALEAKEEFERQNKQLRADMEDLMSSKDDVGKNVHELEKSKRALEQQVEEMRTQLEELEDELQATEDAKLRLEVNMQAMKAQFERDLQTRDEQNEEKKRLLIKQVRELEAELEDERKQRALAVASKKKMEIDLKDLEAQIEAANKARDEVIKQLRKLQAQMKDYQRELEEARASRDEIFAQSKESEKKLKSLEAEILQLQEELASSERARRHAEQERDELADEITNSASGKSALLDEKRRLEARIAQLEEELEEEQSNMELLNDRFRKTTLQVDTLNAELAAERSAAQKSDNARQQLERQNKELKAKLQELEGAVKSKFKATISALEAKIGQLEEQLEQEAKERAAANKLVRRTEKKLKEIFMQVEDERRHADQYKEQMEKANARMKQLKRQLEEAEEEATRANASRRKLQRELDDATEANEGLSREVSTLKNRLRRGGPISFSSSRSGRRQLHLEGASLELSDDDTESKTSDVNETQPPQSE
From the text: as §1

[4] = biological target: recombinant human non-muscle myosin 2 NM2C (Homo sapiens, UniProt Q7Z406); experiment: actomyosin steady state ATPase measurement, NM2C; format: biochemical; conditions: for IC50: concentration required for semi-maximal inhibition of ATPase; for % inhibition. complete NM2C: maximum value of inhibition of ATPase activity; for inhibition at 5 µM: read-out: % inhibition at 5 μM (or 10 μM if racemate) NM2C, 5 μM (10 μM if racemate); for inhibition at 5 µM / inhibition at 50 µM: ATPase activity; for inhibition at 50 µM: read-out: % inhibition at 50 μM (or 100 μM if racemate) NM2C, 50 μM (100 μM if racemate)
From the text: as §1

[5] = biological target: T1, isolated porcine cardiac ventricular myocardium (cardiac) (Sus scrofa, UniProt P79293); experiment: actomyosin steady state ATPase measurement, cardiac myosin; format: biochemical; conditions: for IC50: concentration required for semi-maximal inhibition of ATPase; for % inhibition. complete cardiac: maximum value of inhibition of ATPase activity; for inhibition at 5 µM: read-out: % inhibition at 5 μM (or 10 μM if racemate) cardiac, 5 μM (10 μM if racemate); for inhibition at 5 µM / inhibition at 50 µM: ATPase activity; for inhibition at 50 µM: read-out: % inhibition at 50 μM (or 100 μM if racemate) cardiac, 50 μM (100 μM if racemate)
T1 construct: isolated porcine cardiac ventricular myocardium (cardiac); from tissue; host or cells: porcine cardiac ventricle
From the text: as §1

[6] = tested on: isolated rabbit skeletal muscle myosin (skeletal); experiment: actomyosin steady state ATPase measurement, skeletal muscle myosin; format: biochemical; conditions: for % inhibition at 5 μM (or 10 μM if racemate) Skeletal: 5 μM (10 μM if racemate); for % inhibition at 5 μM (or 10 μM if racemate) Skeletal / % inhibition at 50 μM (or 100 μM if racemate) Skeletal: ATPase activity; for % inhibition at 50 μM (or 100 μM if racemate) Skeletal: 50 μM (100 μM if racemate); for IC50: concentration required for semi-maximal inhibition of ATPase; for % inhibition. complete Skeletal: maximum value of inhibition of ATPase activity
From the text: as §1

[7] = biological target: isolated smooth muscle myosin (UniProt P10587); format: biochemical, chamois; conditions: concentration required for semi-maximal inhibition of ATPase
Chain of isolated smooth muscle myosin (P10587 whole entry): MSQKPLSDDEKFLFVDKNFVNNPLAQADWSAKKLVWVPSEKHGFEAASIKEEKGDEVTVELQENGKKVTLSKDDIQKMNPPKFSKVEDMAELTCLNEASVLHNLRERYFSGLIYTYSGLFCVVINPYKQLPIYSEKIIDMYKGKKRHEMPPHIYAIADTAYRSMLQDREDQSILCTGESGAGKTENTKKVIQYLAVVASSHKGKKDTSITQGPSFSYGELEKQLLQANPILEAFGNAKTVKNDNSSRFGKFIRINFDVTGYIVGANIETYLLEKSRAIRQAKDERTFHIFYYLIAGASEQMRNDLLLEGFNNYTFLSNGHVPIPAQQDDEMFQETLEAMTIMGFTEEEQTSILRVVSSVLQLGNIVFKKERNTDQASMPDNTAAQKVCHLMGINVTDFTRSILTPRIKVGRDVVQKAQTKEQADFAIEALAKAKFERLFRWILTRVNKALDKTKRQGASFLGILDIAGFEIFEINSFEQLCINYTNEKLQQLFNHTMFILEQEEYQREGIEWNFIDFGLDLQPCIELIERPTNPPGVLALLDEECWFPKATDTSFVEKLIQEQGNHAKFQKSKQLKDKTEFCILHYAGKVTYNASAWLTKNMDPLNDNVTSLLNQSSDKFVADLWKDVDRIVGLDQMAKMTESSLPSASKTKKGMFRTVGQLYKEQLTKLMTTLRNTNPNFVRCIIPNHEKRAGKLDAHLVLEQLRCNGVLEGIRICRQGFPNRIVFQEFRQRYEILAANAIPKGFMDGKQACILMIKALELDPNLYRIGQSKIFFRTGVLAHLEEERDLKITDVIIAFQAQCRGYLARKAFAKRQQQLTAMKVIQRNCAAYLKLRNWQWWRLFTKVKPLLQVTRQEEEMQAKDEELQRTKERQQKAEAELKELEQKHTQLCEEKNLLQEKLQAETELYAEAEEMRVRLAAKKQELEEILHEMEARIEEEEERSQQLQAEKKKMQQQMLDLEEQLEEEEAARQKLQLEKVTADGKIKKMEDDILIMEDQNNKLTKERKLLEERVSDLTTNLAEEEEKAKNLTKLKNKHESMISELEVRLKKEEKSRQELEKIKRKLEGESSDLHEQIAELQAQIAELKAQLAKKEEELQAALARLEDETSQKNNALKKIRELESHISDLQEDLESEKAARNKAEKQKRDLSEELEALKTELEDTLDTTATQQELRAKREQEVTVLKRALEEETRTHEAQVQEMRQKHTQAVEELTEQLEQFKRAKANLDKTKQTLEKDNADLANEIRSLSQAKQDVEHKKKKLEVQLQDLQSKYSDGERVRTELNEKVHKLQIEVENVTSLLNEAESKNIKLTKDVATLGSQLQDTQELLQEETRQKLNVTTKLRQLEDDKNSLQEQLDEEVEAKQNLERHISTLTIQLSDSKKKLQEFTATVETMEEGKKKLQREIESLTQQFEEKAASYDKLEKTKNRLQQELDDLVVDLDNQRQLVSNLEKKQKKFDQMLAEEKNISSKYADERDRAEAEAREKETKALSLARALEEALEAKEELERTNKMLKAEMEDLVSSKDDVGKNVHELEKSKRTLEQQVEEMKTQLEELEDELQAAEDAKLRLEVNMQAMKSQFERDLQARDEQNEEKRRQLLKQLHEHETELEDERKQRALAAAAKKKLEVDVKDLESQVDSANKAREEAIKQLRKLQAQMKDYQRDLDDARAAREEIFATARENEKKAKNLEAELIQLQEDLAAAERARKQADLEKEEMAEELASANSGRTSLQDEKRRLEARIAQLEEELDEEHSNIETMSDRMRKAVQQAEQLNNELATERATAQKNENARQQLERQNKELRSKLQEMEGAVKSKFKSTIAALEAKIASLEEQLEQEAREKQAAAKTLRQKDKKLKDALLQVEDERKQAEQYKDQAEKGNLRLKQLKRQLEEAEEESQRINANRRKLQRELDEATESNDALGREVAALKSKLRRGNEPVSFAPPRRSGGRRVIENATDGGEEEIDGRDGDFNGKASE
From the text: (ii) the concentration required for semi-maximal inhibition.

[8] = biological target: isolated smooth muscle myosin (UniProt P10587); format: biochemical, chamois; conditions: for % inhibition at 5 μM (or 10 μM if racemate) Smooth: 5 μM (10 μM if racemate); for % inhibition at 5 μM (or 10 μM if racemate) Smooth / % inhibition at 50 μM (or 100 μM if racemate) Smooth: ATPase activity; for % inhibition at 50 μM (or 100 μM if racemate) Smooth: 50 μM (100 μM if racemate); for % inhibition. complete Smooth: maximum value of inhibition of ATPase activity
[9] = maximum inhibition, compounds in IC50 range 1-5 μM

Compound | IC50 [1] [µM] | inhibition at 5 µM [1] [%] | inhibition at 50 µM [1] [%] | inhibition at 5 µM [2] [%] | inhibition at 50 µM [2] [%] | IC50 [4] [µM] | inhibition at 5 µM [4] [%] | inhibition at 50 µM [4] [%] | IC50 [5] [µM] | % inhibition. complete cardiac [5] [%] | inhibition at 5 µM [5] [%] | inhibition at 50 µM [5] [%] | % inhibition at 5 μM (or 10 μM if racemate) Skeletal [6] [%] | % inhibition at 50 μM (or 100 μM if racemate) Skeletal [6] [%] | IC50 [6] [µM] | % inhibition. complete Skeletal [6] [%] | IC50 [7] [µM] | % inhibition at 5 μM (or 10 μM if racemate) Smooth [8] [%] | % inhibition at 50 μM (or 100 μM if racemate) Smooth [8] [%] | % inhibition. complete Smooth [8] [%] | further results
O=C1c2sccc2N=C2N(c3ccccc3)CCC12O (stereo not shown) [Compound 183, 7-Hydroxy-4-phenyl-10-thia-2,4-diazatricyclo[7.3.0.0^3,7]dodeca-1(9),2,11-trien-8-one] | 5 | 26 | 80 | 4 | 37 | 60 | 6 | 37 | 8 | 84 | 33 | 73 | 80 | 93 | 1 | 95 | 15 | 17 | 51 | 66 | % inhibition. complete Dicty [1]: 100%; IC50 [2]: 87 µM; % inhibition. complete NM2A [2]: 100%; IC50 [3]: 12 µM; % inhibition. complete NM2B ([3]; maximum value of inhibition of ATPase activity): 56%; inhibition at 5 µM [3]: 16%; inhibition at 50 µM [3]: 45%; % inhibition. complete NM2C [4]: 83%
O=C1c2cccnc2N=C2N(c3ccccc3)CCC12O (stereo not shown) [Compound 189, 3a-Hydroxy-1-phenyl-1H,2H,3H,3aH,4H-pyrrolo[2,3-b]1,8-naphthyridin-4-one] | > 100 | 0 | 0 | 4 | 7 | 1 | 11 | 13 | 26 | 72 | 11 | 47 | 37 | 80 | 7 | 92 | 1 | 8 | 7 | 8 | IC50 [2]: 6 µM; Inhibition (%) NM2A [2]: 8%; % inhibition. complete NM2A [2]: 8%; IC50 [3]: > 100 µM; inhibition at 5 µM [3]: 0%; inhibition at 50 µM [3]: -5%; Inhibition (%) smooth [8, 9]: 8%
O=C1c2ncccc2N=C2N(c3ccccc3)CCC12O (stereo not shown) [Compound 190, 8a-Hydroxy-6-phenyl-6H,7H,8H,8aH,9H-pyrrolo[2,3-b]1,5-naphthyridin-9-one] |  |  | 44 |  | 15 |  |  | 41 |  |  |  | 43 |  | 86 |  |  |  |  | 34 |  | inhibition at 50 µM [3]: 24%
Cc1nsc2c1C(=O)C1(O)CCN(c3ccccc3)C1=N2 (stereo not shown) [Compound 206, 12-phenyl-9-Hydroxy-6-methyl-4-thia-2,5,12-triazatricyclo[7.3.0.0^3,7]dodeca-1,3(7),5-trien-8-one] |  |  |  | 9 |  |  |  |  | 10 | 47 | 16 | 39 | 26 | 78 | 14 | 100 | 9 | 9 | 21 | 24 | 
Cc1cc2c(s1)N=C1N(c3cccs3)CC[C@@]1(O)C2=O [Compound 208, (9S)-9-Hydroxy-5-methyl-12-(thiophen-2-yl)-4-thia-2,12-diazatricyclo[7.3.0.0^3,7]dodeca-1,3(7),5-trien-8-one] | 3.6 | 55 | 89 | 37 | 78 | 1.7 | 54 | 65 |  |  |  |  | 87 | 93 | 0.36 | 95 | 7.8 | 26 | 60 | 66 | Inhibition (%) Dicty ([1]; maximum inhibition, compounds in IC50 range 1-11 μM): 95%; % inhibition. complete Dicty [1]: 95%; IC50 [2]: 7.2 µM; Inhibition (%) NM2A [2]: 89%; % inhibition. complete NM2A [2]: 89%; % inhibition. complete NM2C [4]: 69%
Cc1ccc(N2CC[C@@]3(O)C(=O)c4ccsc4N=C23)cc1 [Compound 233, (9S)-9-Hydroxy-12-(4-methylphenyl)-4-thia-2,12-diazatricyclo[7.3.0.0^3,7]dodeca-1,3(7),5-trien-8-one] | 17 | 21 | 76 |  |  | 2.1 | 48 | 69 | 0.82 | 88 | 74 | 87 | 92 | 98 | 0.32 | 98 | 8.8 | 29 | 70 | 83 | % inhibition. complete Dicty [1]: 100%; Inhibition (%) NM2C [4, 9]: 72%; % inhibition. complete NM2C [4]: 72%
